Data as given in patent US20160002248A1, “GLS1 INHIBITORS FOR TREATING DISEASE” (Board of Regents, The University of Texas System, priority 2014, published 2016).

Experiments:
[1] = biological target: T1, purified recombinant human GAC (GLS1) (Homo sapiens, UniProt O94925); assay: GLS1 Enzymatic Activity Assay (dual-coupled enzymatic assay); type: biochemical
T1 sequence (O94925 55-598 isoform O94925-3 limits assumed): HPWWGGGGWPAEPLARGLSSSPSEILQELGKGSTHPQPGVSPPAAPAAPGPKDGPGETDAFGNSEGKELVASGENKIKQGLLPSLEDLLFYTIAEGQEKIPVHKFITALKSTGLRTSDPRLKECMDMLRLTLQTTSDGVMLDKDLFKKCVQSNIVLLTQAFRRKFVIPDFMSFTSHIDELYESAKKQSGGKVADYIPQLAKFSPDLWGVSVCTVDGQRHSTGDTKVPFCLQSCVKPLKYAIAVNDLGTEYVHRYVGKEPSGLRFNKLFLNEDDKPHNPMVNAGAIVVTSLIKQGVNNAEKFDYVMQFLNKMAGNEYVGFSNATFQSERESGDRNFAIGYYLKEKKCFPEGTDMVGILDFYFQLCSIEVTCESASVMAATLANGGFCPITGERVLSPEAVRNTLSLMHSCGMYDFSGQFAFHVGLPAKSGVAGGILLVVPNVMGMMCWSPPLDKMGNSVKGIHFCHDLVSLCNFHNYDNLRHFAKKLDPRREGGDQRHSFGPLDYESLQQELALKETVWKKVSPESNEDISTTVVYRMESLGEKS
Method in brief: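 In this coupled fluorometric format, phosphate-activated GAC (2 nM, 50 mM phosphate) is pre-exposed to compound for 10 min before 1 mM glutamine addition. Product is tracked as resorufin (530/590 nm) over time or at 20 min, and potency is derived by logistic fitting.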

[2] = system: A549 cells; assay: Proliferation Assay (A549 cell viability, Cell Titer Fluor); type: cell-based; conditions: Homo sapiens, 72 hours
Method in brief: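 Fluorescence read-out (Cell Titer Fluor, 30 min at 37 °C after reagent) after 72 h compound exposure of A549 cells; EC50 by four-parameter logistic curve fit. Cells: 1000/well, RPMI 1640 + 10% dialyzed FBS, 0.5% DMSO final.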

SMILES | IC50 [1] [nM] | EC50 [2] [nM]
Cc1ccc(CNC(=O)c2cn(CCCCc3cc4c(C5CC5)c(C5CC5)[nH]c4nn3)nn2)cn1 [Example 96, 1-(4-(5,6-dicyclopropyl-7H-pyrrolo[2,3-c]pyridazin-3-yl)butyl)-N-((6-methylpyridin-3-yl)methyl)-1H-1,2,3-triazole-4-carboxamide] | < 100 | 100 to 500
CC(C)OC(=O)N1CC(c2cc3cc(CCCCn4cc(C(=O)NCc5cc(C(F)(F)F)ccn5)nn4)nnc3[nH]2)C1 [Example 200, propan-2-yl 3-(3-{4-[4-({[4-(trifluoromethyl)pyridin-2-yl]methyl}carbamoyl)-1H-1,2,3-triazol-1-yl]butyl}-7H-pyrrolo[2,3-c]pyridazin-6-yl)azetidine-1-carboxylate] | < 100 | 100 to 500
O=C(NCc1ncccn1)c1cn(CCCCc2cc3cc(C4CC4)[nH]c3nn2)nn1 [Example 38, 1-(4-{6-cyclopropyl-7H-pyrrolo[2,3-c]pyridazin-3-yl}butyl)-N-(pyrimidin-2-ylmethyl)-1H-1,2,3-triazole-4-carboxamide] | 500 to 5000 | 500 to 5000
CC(C)(C)OC(=O)N1CC(c2cc3cc(CCCCn4cc(C(=O)NCc5cccc(OC(F)(F)F)c5)nn4)nnc3[nH]2)C1 [Example 105, tert-butyl 3-(3-{4-[4-({[3-(trifluoromethoxy)phenyl]methyl}carbamoyl)-1H-1,2,3-triazol-1-yl]butyl}-7H-pyrrolo[2,3-c]pyridazin-6-yl)azetidine-1-carboxylate] | < 100 | < 100
CC(C)(CO)CNC(=O)c1nnc(CCCCc2cc3cc(Cc4ccccc4)[nH]c3nn2)s1 [Example 79, 5-(4-{6-benzyl-7H-pyrrolo[2,3-c]pyridazin-3-yl}butyl)-N-(3-hydroxy-2,2-dimethylpropyl)-1,3,4-thiadiazole-2-carboxamide] | 100 to 500 | 500 to 5000
N#Cc1ccc(CNC(=O)c2cn(CCCCc3cc4cc(C5CC5)[nH]c4nn3)nn2)cn1 [Example 53, N-[(6-cyanopyridin-3-yl)methyl]-1-(4-{6-cyclopropyl-7H-pyrrolo[2,3-c]pyridazin-3-yl}butyl)-1H-1,2,3-triazole-4-carboxamide] | 100 to 500 | 500 to 5000
NC(=O)c1nnc(CCCCc2cc3cc(Cc4ccccc4)[nH]c3nn2)s1 [Example 80, 5-(4-{6-benzyl-7H-pyrrolo[2,3-c]pyridazin-3-yl}butyl)-1,3,4-thiadiazole-2-carboxamide] | 100 to 500 | 500 to 5000
O=C(NCc1cc(C(F)(F)F)ccn1)c1cn(CCCCc2cc3c(C4CC4)c(C4CCCC4)[nH]c3nn2)nn1 [Example 216, 1-(4-{6-cyclopentyl-5-cyclopropyl-7H-pyrrolo[2,3-c]pyridazin-3-yl}butyl)-N-{[4-(trifluoromethyl)pyridin-2-yl]methyl}-1H-1,2,3-triazole-4-carboxamide] | < 100 | 100 to 500
O=C(NCc1ccccc1)c1cn(CCCCc2cc3c(I)c[nH]c3nn2)nn1 [Example 15, N-benzyl-1-(4-(5-iodo-7H-pyrrolo[2,3-c]pyridazin-3-yl)butyl)-1H-1,2,3-triazole-4-carboxamide] | 100 to 500 | 500 to 5000
Cc1ccc(CNC(=O)c2cn(CCCCc3cc4cc(C5CNC5)[nH]c4nn3)nn2)cn1 [Example 97, 1-{4-[6-(azetidin-3-yl)-7H-pyrrolo[2,3-c]pyridazin-3-yl]butyl}-N-[(6-methylpyridin-3-yl)methyl]-1H-1,2,3-triazole-4-carboxamide] | 100 to 500 | 500 to 5000
O=C(NCc1cncc(C(F)(F)F)c1)c1cn(CCCCc2cc3c(-c4ccoc4)c(C4CC4)[nH]c3nn2)nn1 [Example 189, 1-{4-[6-cyclopropyl-5-(furan-3-yl)-7H-pyrrolo[2,3-c]pyridazin-3-yl]butyl}-N-{[5-(trifluoromethyl)pyridin-3-yl]methyl}-1H-1,2,3-triazole-4-carboxamide] | < 100 | < 100
Cn1ccc(CNC(=O)c2cn(CCCCc3cc4cc(C5CC5)[nH]c4nn3)nn2)n1 [Example 52, 1-(4-{6-cyclopropyl-7H-pyrrolo[2,3-c]pyridazin-3-yl}butyl)-N-[(1-methyl-1H-pyrazol-3-yl)methyl]-1H-1,2,3-triazole-4-carboxamide] | 100 to 500 | 500 to 5000
CC(C)CNC(=O)c1cn(CCCCc2cc3cc(Cc4ccccc4)[nH]c3nn2)nn1 [Example 65, 1-(4-{6-benzyl-7H-pyrrolo[2,3-c]pyridazin-3-yl}butyl)-N-(2-methylpropyl)-1H-1,2,3-triazole-4-carboxamide] | 500 to 5000 | 100 to 500
CC(C)OC(=O)N1CC(c2cc3cc(CCCCn4cc(C(=O)NCc5ccc(C(F)(F)F)cn5)nn4)nnc3[nH]2)C1 [Example 206, propan-2-yl 3-(3-{4-[4-({[5-(trifluoromethyl)pyridin-2-yl]methyl}carbamoyl)-1H-1,2,3-triazol-1-yl]butyl}-7H-pyrrolo[2,3-c]pyridazin-6-yl)azetidine-1-carboxylate] | < 100 | 100 to 500
Cc1ccc(CNC(=O)c2cn(CCCCc3cc4cc(-c5ccc(F)cc5F)[nH]c4nn3)nn2)cn1 [Example 183, 1-{4-[6-(2,4-difluorophenyl)-7H-pyrrolo[2,3-c]pyridazin-3-yl]butyl}-N-[(6-methylpyridin-3-yl)methyl]-1H-1,2,3-triazole-4-carboxamide] | < 100 | 100 to 500

Continued, values first:

IC50 [1] [nM] | EC50 [2] [nM] | SMILES
500 to 5000 | 100 to 500 | CC(C)Cc1cc2cc(CCCCn3cc(C(=O)NCc4ccccn4)nn3)nnc2[nH]1 [Example 28, 1-{4-[6-(2-methylpropyl)-7H-pyrrolo[2,3-c]pyridazin-3-yl]butyl}-N-(pyridin-2-ylmethyl)-1H-1,2,3-triazole-4-carboxamide]
< 100 | 500 to 5000 | CC(=O)Nc1cccc(-c2c(C3CC3)[nH]c3nnc(CCCCn4cc(C(=O)NCc5ccccn5)nn4)cc23)c1 [Example 153]
< 100 | < 100 | O=C(NCc1cc(OC(F)(F)F)ccc1F)c1cn(CCCCc2cc3c(-c4ccccn4)c(C4CC4)[nH]c3nn2)nn1 [Example 144, 1-{4-[6-cyclopropyl-5-(pyridin-2-yl)-7H-pyrolo[2,3-c]pyridazin-3-yl]butyl}-N-{[2-fluoro-5-(trifluoromethoxy)phenyl]methyl}-1H-1,2,3-triazole-4-carboxamide]
< 100 | 500 to 5000 | O=C(NCc1ccccn1)c1cn(CCCCc2cc3cc(Cc4ccccc4)[nH]c3nn2)nn1 [Example 34, 1-(4-{6-benzyl-7H-pyrrolo[2,3-c]pyridazin-3-yl}butyl)-N-(pyridin-2-ylmethyl)-1H-1,2,3-triazole-4-carboxamide]
< 100 | 100 to 500 | O=C(NCc1ccccn1)c1cn(CCCCc2cc3c(-c4ccc5c(c4)OCO5)c(C4CC4)[nH]c3nn2)nn1 [Example 145, 1-{4-[5-(2H-1,3-benzodioxol-5-yl)-6-cyclopropyl-7H-pyrrolo[2,3-c]pyridazin-3-yl]butyl}-N-(pyridin-2-ylmethyl)-1H-1,2,3-triazole-4-carboxamide]
< 100 | 500 to 5000 | O=C(NCc1ccccn1)c1cn(CCCCc2cc3c(Cc4ccccc4F)c(C4CC4)[nH]c3nn2)nn1 [Example 104, 1-(4-{6-cyclopropyl-5-[(2-fluorophenyl)methyl]-7H-pyrrolo[2,3-c]pyridazin-3-yl}butyl)-N-(pyridin-2-ylmethyl)-1H-1,2,3-triazole-4-carboxamide]
< 100 | 500 to 5000 | CC(=O)Nc1ccc(-c2c(C3CC3)[nH]c3nnc(CCCCn4cc(C(=O)NCc5ccc(C)nc5)nn4)cc23)cc1 [Example 179, 1-{4-[6-cyclopropyl-5-(4-acetamidophenyl)-7H-pyrrolo[2,3-c]pyridazin-3-yl]butyl}-N-[(6-methylpyridin-3-yl)methyl]-1H-1,2,3-triazole-4-carboxamide]
< 100 | 100 to 500 | O=C(NCc1ccccn1)c1cn(CCCCc2cc3c(Cc4ccc5ccccc5c4)c(C4CC4)[nH]c3nn2)nn1 [Example 101, 1-{4-[6-cyclopropyl-5-(naphthalen-2-ylmethyl)-7H-pyrrolo[2,3-c]pyridazin-3-yl]butyl}-N-(pyridin-2-ylmethyl)-1H-1,2,3-triazole-4-carboxamide]
< 100 | 100 to 500 | O=C(NCc1ccccn1)c1cn(CCCCc2cc3c(-c4ccsc4)c(C4CC4)[nH]c3nn2)nn1 [Example 139, 1-{4-[6-cyclopropyl-5-(thiophen-3-yl)-7H-pyrrolo[2,3-c]pyridazin-3-yl]butyl}-N-(pyridin-2-ylmethyl)-1H-1,2,3-triazole-4-carboxamide]
< 100 | 100 to 500 | O=C(NCc1ccc(C(F)(F)F)cn1)c1cn(CCCCc2cc3c(-c4ccc(F)cc4F)c(C4CC4)[nH]c3nn2)nn1 [Example 218, 1-{4-[6-cyclopropyl-5-(2,4-difluorophenyl)-7H-pyrrolo[2,3-c]pyridazin-3-yl]butyl}-N-{[5-(trifluoromethyl)pyridin-2-yl]methyl}-1H-1,2,3-triazole-4-carboxamide]
